The values that follow come from ChEMBL document CHEMBL1137045, “Quinazolinone-based fungal efflux pump inhibitors. Part 1: Discovery of an (N-methylpiperazine)-containing derivative with activity in clinically relevant Candida spp” (Bioorg Med Chem Lett, 2004).

Values after ≈ are worked out from the molar mass of the structure shown. Bounds are passed on as bounds.

Experiment [1] deals with Nakaseomyces glabratus. Put plainly: In vitro concentration to inhibit Candida glabrata CgCDR1 transporter gene over-expressed in Saccharomyces cerevisiae strain Y170. Format: functional, organism-based.
In experiment [2] the test system is Candida albicans. In words: In vitro concentration to inhibit Candida albicans CDR1 transporter gene over-expressed in Saccharomyces cerevisiae strain YEM172. Format: functional, organism-based.
For experiment [3], the system named is Candida albicans. In words: In vitro concentration to inhibit Candida albicans CDR2 transporter gene over-expressed in Saccharomyces cerevisiae strain YEM171. Format: functional, organism-based.
Experiment [4] relates to Candida albicans. Put plainly: In vitro minimum potentiation concentration required to achieve an 8-fold reduction in fluconazole MIC against Candida albicans strain YEM15 (overexpressing both CDR1 and CDR2). Format: functional.
Experiment [5] concerns Nakaseomyces glabratus. In words: In vitro minimum potentiation concentration required to achieve an 8-fold reduction in fluconazole MIC against Candida glabrata strain YEM19 (overexpressing both […]). Format: functional.
Experiment [6] has as its system Nakaseomyces glabratus. Put plainly: In vitro concentration to inhibit Candida glabrata CgCDR2 transporter gene over-expressed in Saccharomyces cerevisiae strain Y218. The class given is functional, organism-based.
In experiment [7] the test system is Saccharomyces cerevisiae. Put plainly: In vitro concentration required to inhibit 80% growth of Saccharomyces cerevisiae strain Y170 (CgCDR1 over-expressed) after 48 h. The class given is functional.
In experiment [8] the test system is Saccharomyces cerevisiae. In words: In vitro concentration required to inhibit 80% growth of Saccharomyces cerevisiae strain YEM139 (PDR5 deleted) after 48 h. Format: functional.
Experiment [9] concerns Saccharomyces cerevisiae. In words: In vitro concentration required to inhibit 80% growth of Saccharomyces cerevisiae strain YEM171 (CDR2 over-expressed) after 48 h. Format: functional.
For experiment [10], the system named is Saccharomyces cerevisiae. In words: In vitro concentration required to inhibit 80% growth of Saccharomyces cerevisiae strain YEM172 (CDR1 over-expressed) after 48 h. Format: functional.
Experiment [11] has as its system Saccharomyces cerevisiae. In words: In vitro concentration required to inhibit 80% growth of Saccharomyces cerevisiae strain Y218 (CgCDR2 over-expressed) after 48 h. The class given is functional.

One may read the IC50 as the concentration at which inhibition is half-maximal. A high value points to a need for much substance. In the case of `COc1ccc(N(Cc2nc3ccccc3c(=O)n2N2CCN(C)CC2)C(=O)Nc2cccc(Cl)c2)c(OC)c1`, the IC50 is more than 32 µg/mL with Nakaseomyces glabratus [1], 32 µg/mL (≈ 56.8 µM) with Candida albicans [2], more than 32 µg/mL with Candida albicans [3] and 32 µg/mL (≈ 56.8 µM) with Nakaseomyces glabratus [6]. The MPC8 in the experiment with Candida albicans [4] and in the experiment with Nakaseomyces glabratus [5] was 16 µg/mL throughout.

As to `COc1ccc(N(C(=O)Nc2cccc(Cl)c2)[C@@H](C)c2nc3ccccc3c(=O)n2N2CCN(C)CC2)c(OC)c1`, the IC50 in the experiment on Nakaseomyces glabratus [1] is 4 µg/mL (≈ 6.93 µM); in the experiment with Candida albicans [2] it was 2 µg/mL (≈ 3.47 µM); with Candida albicans [3], more than 32 µg/mL; with Nakaseomyces glabratus [6] it was more than 32 µg/mL. The MPC8 in the experiment on Candida albicans [4] and with Nakaseomyces glabratus [5] was 1 µg/mL in each case.

Regarding `CCOC(=O)CCn1c(C(C)N(C(=O)Nc2cccc(Cl)c2)c2ccc(OC)cc2OC)nc2ccccc2c1=O` (configuration not stated), the IC50 is more than 32 µg/mL in the experiment with Nakaseomyces glabratus [1], 0.5 µg/mL (≈ 0.863 µM) in the experiment with Candida albicans [2], more than 32 µg/mL in the experiment with Candida albicans [3] and more than 32 µg/mL with Nakaseomyces glabratus [6]. The MPC8 with Candida albicans [4] is 1 µg/mL; in the experiment with Nakaseomyces glabratus [5], more than 32 µg/mL.

In the case of `COc1ccc(N(C(=O)Nc2cccc(Cl)c2)[C@H](C)c2nc3ccccc3c(=O)n2N2CCN(C)CC2)c(OC)c1`, the concentration for half-maximal inhibition (IC50) in the experiment with Nakaseomyces glabratus [1], in the experiment on Candida albicans [2], in the experiment with Candida albicans [3] and with Nakaseomyces glabratus [6] was more than 32 µg/mL throughout. The MPC8 with Candida albicans [4] and with Nakaseomyces glabratus [5] was more than 32 µg/mL throughout.

As for `COc1ccc(N(C(=O)Nc2cccc(Cl)c2)C(C)c2nc3ccccc3c(=O)n2N2CCN(C)CC2)c(OC)c1` (configuration not stated), the IC50 in the experiment with Nakaseomyces glabratus [1] is 8 µg/mL (≈ 13.9 µM); in the experiment with Candida albicans [2], 4 µg/mL (≈ 6.93 µM); in the experiment with Candida albicans [3], more than 16 µg/mL; in the experiment with Nakaseomyces glabratus [6] it was more than 16 µg/mL. For the same molecule, the values for the MPC8 with Candida albicans [4] and in the experiment on Nakaseomyces glabratus [5] were 1 µg/mL and 4 µg/mL, respectively.

Turning to `COc1ccc(N(C(=O)Nc2cccc(Cl)c2)C(C)(C)c2nc3ccccc3c(=O)n2N2CCN(C)CC2)c(OC)c1`, the half-inhibitory concentration (IC50) with Nakaseomyces glabratus [1], in the experiment with Candida albicans [2], with Candida albicans [3] and with Nakaseomyces glabratus [6] was more than 32 µg/mL in each case. For the same molecule, the MPC8 with Candida albicans [4] and in the experiment with Nakaseomyces glabratus [5] was more than 32 µg/mL each time.

For the molecule `COc1ccc(N(C(=O)Nc2cccc(Cl)c2)C(C)c2nc3ccccc3c(=O)n2Cc2ccccc2)c(OC)c1` (configuration not stated), the IC50 in the experiment on Nakaseomyces glabratus [1] is more than 32 µg/mL; in the experiment on Candida albicans [2] it was 0.12 µg/mL (≈ 0.211 µM); in the experiment with Candida albicans [3] it was more than 32 µg/mL; in the experiment with Nakaseomyces glabratus [6], more than 32 µg/mL. For the same molecule, the MPC8 in the experiment with Candida albicans [4] was 0.5 µg/mL; with Nakaseomyces glabratus [5] it was more than 32 µg/mL.

In general, MIC refers to the smallest concentration in the dilution series that meets the test's criterion for growth inhibition. A higher MIC goes with a less susceptible organism. With `OC(Cn1cncn1)(Cn1cncn1)c1ccc(F)cc1F` [FLUCONAZOLE], the minimum inhibitory concentration (MIC) was 128 µg/mL (≈ 418 µM) against Saccharomyces cerevisiae [7]; 0.5 µg/mL (≈ 1.63 µM) against Saccharomyces cerevisiae [8]; 8 µg/mL (≈ 26.1 µM) in the experiment on Saccharomyces cerevisiae [9]; 128 µg/mL (≈ 418 µM) in the experiment on Saccharomyces cerevisiae [10]; 2 µg/mL (≈ 6.53 µM) against Saccharomyces cerevisiae [11].
